Laboratory results published in US4918172A, “Anthracycline antibiotics” (Sanraku Incorporated, priority 1987, dated 1990).
Values after ≈ are worked out from the molar mass of the structure shown.

How the values were obtained:
Assay type in all cases: cell-based
[1] = tested on: mouse leukemia L1210 culture cells; assay: inhibition of RNA synthesis in L1210 culture cells (14C-uridine uptake); conditions: 10% calf serum RPMI 1640, label added 15 minutes after compound, further 60 minutes at 37° C., read-out: 50% Inhibiting Concentration (IC50) RNA Synthesis Inhibition
Experimental: (§1) Activity of inhibition propagation of mouse leukemia L1210 culture cells and of inhibition synthesis of nucleic acid in the cells:
(§2) Then a solution of the compound of the present invention prepared as mentioned above was added to the medium in a different concentration. 15 minutes after the addition, ^14 C-uridine (0.05 μCi/ml) or ^14 C-thymidine (0.05 μCi/ml) was added and the medium was further incubated at 37° C. for an additional 60 minutes. A cold 10% trichloroacetic acid (TCA) was added to the reaction solution so that the reaction was stopped and the acid-insoluble substance was precipitated. This was washed twice with a cold 5% TCA and then dissolved in formic acid. Then the radioactivity of the resulting solution was measured, and the 50% uptake inhibiting concentration was obtained from the radioactivity uptake ratio relative to the control group.

[2] = tested on: mouse leukemia L1210 culture cells; assay: inhibition of propagation (50% growth inhibiting concentration) of mouse leukemia L1210 culture cells; conditions: read-out: 50% Inhibiting Concentration (IC50) Cell Growth Inhibition
Experimental: as §1
L1210 cells (5×10^4 /ml) were inoculated in RPMI 1640 medium (Rose Wellberg Laboratory) containing 20% calf serum, and the compound of the present invention (as indicated in Table 1 below) was added thereto in a concentration of from 0.0005 to 50.0 μg/ml. Thus the cells were incubated in a CO2 incubator at 37° C. for 48 hours, and the 50% growth inhibiting concentration relative to the control group was obtained. The compound of the present invention was dissolved in M/50 acetic acid (pH 3.0) in a concentration of […] and then diluted with Dulbecco PBS (-) (manufactured by Nissui Pharmaceutical Co.), before being added to the medium.

[3] = tested on: mouse leukemia L1210 culture cells; assay: inhibition of DNA synthesis in L1210 culture cells (14C-thymidine uptake); conditions: 10% calf serum RPMI 1640, label added 15 minutes after compound, further 60 minutes at 37° C., read-out: 50% Inhibiting Concentration (IC50) DNA Synthesis Inhibition
Experimental: as §1, §2

[4] = L1210 cells, RPMI 1640 with 20% calf serum, 37° C., 48 hours

| SMILES | IC50 [1] | IC50 [2, 4] | IC50 [3] | IC50 ([2]; L1210, 48 h) |
| --- | --- | --- | --- | --- |
| CCC1(O)CC(OC2CC(N)C(OC3CCC(O)C(C)O3)C(C)O2)c2c(O)c3c(c(O)c2C1C(=O)OC)C(=O)c1cccc(OC)c1C3=O (stereo not drawn) [CG19A] | 1.3 µg/mL (≈ 1.9 µM) | 1 µg/mL (≈ 1.46 µM) | 4.8 µg/mL (≈ 7 µM) | – |
| CCC1(O)CC(OC2CC(NC)C(OC3CC(O)C(O)C(C)O3)C(C)O2)c2c(O)c3c(c(O)c2C1O)C(=O)c1cccc(O)c1C3=O (stereo not drawn) [CG22B] | 10 µg/mL (≈ 15.2 µM) | – | 5 µg/mL (≈ 7.58 µM) | – |
| CCC1(O)CC(OC2CC(N)C(OC3CC(O)C(O)C(C)O3)C(C)O2)c2c(O)c3c(c(O)c2C1C(=O)OC)C(=O)c1cccc(OC)c1C3=O (stereo not drawn) [CG19B] | 10 µg/mL (≈ 14.3 µM) | – | 10 µg/mL (≈ 14.3 µM) | – |
| CCC1(O)CC(OC2CC(N)C(OC3CC(O)C(O)C(C)O3)C(C)O2)c2c(O)c3c(c(O)c2C1C(=O)OC)C(=O)c1cccc(O)c1C3=O (stereo not drawn) [CG17B] | 2.3 µg/mL (≈ 3.34 µM) | 1.4 µg/mL (≈ 2.04 µM) | 10 µg/mL (≈ 14.5 µM) | – |
| CC1OC(OC2C(N)CC(OC3CC(O)(C(C)O)Cc4c(O)c5c(c(O)c43)C(=O)c3c(O)cccc3C5=O)OC2C)CC(O)C1O (stereo not drawn) [CG20B] | 5 µg/mL (≈ 7.74 µM) | – | 10 µg/mL (≈ 15.5 µM) | – |
| CC1OC(OC2C(N)CC(OC3CC(O)(C(C)O)Cc4c(O)c5c(c(O)c43)C(=O)c3c(O)cccc3C5=O)OC2C)CCC1O (stereo not drawn) [CG20A] | 1.2 µg/mL (≈ 1.91 µM) | – | 1.2 µg/mL (≈ 1.91 µM) | – |
| CCC1(O)CC(OC2CC(N(C)C)C(OC3CCC(O)C(C)O3)C(C)O2)c2c(O)c3c(c(O)c2C1O)C(=O)c1cccc(O)c1C3=O (stereo not drawn) [CG21A] | 0.18 µg/mL (≈ 0.274 µM) | – | 0.38 µg/mL (≈ 0.578 µM) | – |
| CCC1(O)CC(OC2CC(N)C(OC3CCC(O)C(C)O3)C(C)O2)c2c(O)c3c(c(O)c2C1O)C(=O)c1cccc(O)c1C3=O (stereo not drawn) [CG15A] | 3 µg/mL (≈ 4.76 µM) | 0.002 µg/mL (≈ 0.00318 µM) | 1.2 µg/mL (≈ 1.91 µM) | – |
| CCC1(O)CC(OC2CC(N)C(OC3CCC(O)C(C)O3)C(C)O2)c2c(O)c3c(c(O)c2C1C(=O)OC)C(=O)c1cccc(O)c1C3=O (stereo not drawn) [CG17A] | 1.1 µg/mL (≈ 1.64 µM) | 0.5 µg/mL (≈ 0.744 µM) | 3.3 µg/mL (≈ 4.91 µM) | – |
| CCC1(O)CC(OC2CC(NC)C(OC3CCC(O)C(C)O3)C(C)O2)c2c(O)c3c(c(O)c2C1O)C(=O)c1cccc(O)c1C3=O (stereo not drawn) [CG22A] | 1.4 µg/mL (≈ 2.17 µM) | – | 0.87 µg/mL (≈ 1.35 µM) | – |
| CCC1(O)CC(OC2CC(N)C(OC3CC(O)C(O)C(C)O3)C(C)O2)c2c(O)c3c(c(O)c2C1O)C(=O)c1cccc(O)c1C3=O (stereo not drawn) [CG15B] | 2.5 µg/mL (≈ 3.87 µM) | – | 4.6 µg/mL (≈ 7.12 µM) | 0.04 µg/mL (≈ 0.062 µM) |
